In US12290596B2, “Compositions and methods for the treatment of opioid overdose” (priority 2021, dated 2025):

Assay: Three-treatment crossover pharmacokinetics of IN nalmefene, three dosing regimens (Example 13)
Details: for half-life / AUC(0-t) / AUC(0-inf) / Cmax / Vd/F / concentration at 3 h / concentration at 4 h / concentration at 6 h / concentration at 8 h / concentration at 12 h / concentration at 18 h / concentration at 24 h / concentration at 48 h: human, plasma, other: intranasal (IN spray); for AUC(0-t) / AUC(0-inf) / Cmax / Vd/F: mean; for AUC(0-inf): AUCinf; for Vd/F: Vz/F; for concentration at 3 h / concentration at 4 h / concentration at 6 h / concentration at 8 h / concentration at 12 h / concentration at 18 h / concentration at 24 h / concentration at 48 h: T1 (3 mg IN, one spray in one nostril)
[1] = Treatment A (T1) 3 mg in one nostril
[2] = Treatment B (T2) 3 mg in each nostril (6 mg)
[3] = Treatment C (T3) 6 mg in one nostril
[4] = 3 mg, Treatment A (T1) 3 mg in one nostril
[5] = 6 mg, Treatment B (T2) 3 mg in each nostril (6 mg)
[6] = 6 mg, Treatment C (T3) 6 mg in one nostril

## C=C1CC[C@@]2(O)[C@H]3Cc4ccc(O)c5c4[C@@]2(CCN3CC2CC2)[C@H]1O5 [Nalmefene, 17-cyclopropylmethyl-4,5α-epoxy-6-methylenemorphinan-3,14-diol]
ANOVA
  Dose-normalized Cmax lower after Treatment C (T3) compared to Treatment A (T1): approximately 19%
[1]
  AUC0-2.5 min/D, mean: 0.00276 ng·h/mL/mg
  AUC0-5 min/D, mean: 0.0206 ng·h/mL/mg
  AUC0-7.5 min/D, mean: 0.0728 ng·h/mL/mg
  AUC0-10 min/D, mean: 0.160 ng·h/mL/mg
  AUC0-15 min/D, mean: 0.393 ng·h/mL/mg
  AUC0-20 min/D, mean: 0.639 ng·h/mL/mg
  AUC0-30 min/D, mean: 1.06 ng·h/mL/mg
  AUCextrap, mean: 4.22%
  CL/F, mean: 66.9 L/h
  Cmax/D, mean: 3.59 ng/mL/mg
[2]
  AUC0-2.5 min/D, mean: 0.0072 ng·h/mL/mg
  AUC0-5 min/D, mean: 0.0369 ng·h/mL/mg
  AUC0-7.5 min/D, mean: 0.106 ng·h/mL/mg
  AUC0-10 min/D, mean: 0.202 ng·h/mL/mg
  AUC0-15 min/D, mean: 0.445 ng·h/mL/mg
  AUC0-20 min/D, mean: 0.691 ng·h/mL/mg
  AUC0-30 min/D, mean: 1.08 ng·h/mL/mg
  AUCextrap, mean: 3.61%
  AUClast/D, mean: 14.4 ng·h/mL/mg
  CL/F, mean: 69.2 L/h
  Cmax/D, mean: 3.70 ng/mL/mg
[3]
  AUC0-2.5 min/D, mean: 0.00455 ng·h/mL/mg
  AUC0-5 min/D, mean: 0.0244 ng·h/mL/mg
  AUC0-7.5 min/D, mean: 0.0803 ng·h/mL/mg
  AUC0-10 min/D, mean: 0.165 ng·h/mL/mg
  AUC0-15 min/D, mean: 0.374 ng·h/mL/mg
  AUC0-20 min/D, mean: 0.588 ng·h/mL/mg
  AUC0-30 min/D, mean: 0.931 ng·h/mL/mg
  AUCextrap, mean: 4.18%
  AUClast/D, mean: 13.7 ng·h/mL/mg
  CL/F, mean: 73.3 L/h
  Cmax/D, mean: 3.15 ng/mL/mg
3 mg
  half-life: 11.4 h
3 mg, AUC0-5 min, Treatment A (T1) 3 mg in one nostril
  AUC(0-t): 0.0618 ng·h/mL
3 mg, AUC0-10 min, Treatment A (T1) 3 mg in one nostril
  AUC(0-t): 0.48 ng·h/mL
3 mg, AUC0-15 min, Treatment A (T1) 3 mg in one nostril
  AUC(0-t): 1.18 ng·h/mL
3 mg, AUC0-20 min, Treatment A (T1) 3 mg in one nostril
  AUC(0-t): 1.92 ng·h/mL
3 mg, AUC0-30 min, Treatment A (T1) 3 mg in one nostril
  AUC(0-t): 3.19 ng·h/mL
3 mg, AUC0-[…], Treatment A (T1) 3 mg in one nostril
  AUC(0-t): 0.219 ng·h/mL
[4]
  AUC(0-inf): 46.8 ng·h/mL
  Cmax: 10.8 ng/mL
  Vd/F: 1090 L
3 mg, AUClast, Treatment A (T1) 3 mg in one nostril
  AUC(0-t): 44.9 ng·h/mL
3 mg, Max
  concentration at 3 h: 6.01 ng/mL
  concentration at 4 h: 4.86 ng/mL
  concentration at 6 h: 3.01 ng/mL
  concentration at 8 h: 2.19 ng/mL
  concentration at 12 h: 1.51 ng/mL
  concentration at 18 h: 0.851 ng/mL
  concentration at 24 h: 0.785 ng/mL
  concentration at 48 h: 0.184 ng/mL
3 mg, Median
  concentration at 3 h: 3.51 ng/mL
  concentration at 4 h: 2.78 ng/mL
  concentration at 6 h: 2.07 ng/mL
  concentration at 8 h: 1.34 ng/mL
  concentration at 12 h: 0.985 ng/mL
  concentration at 18 h: 0.581 ng/mL
  concentration at 24 h: 0.37 ng/mL
  concentration at 48 h: 0.088 ng/mL
3 mg, Min
  concentration at 12 h: 0.727 ng/mL
  concentration at 18 h: 0.37 ng/mL
  concentration at 24 h: 0.261 ng/mL
  concentration at 48 h: 0 ng/mL
6 mg
  half-life: 11.3 h
6 mg, AUC0-5 min, Treatment B (T2) 3 mg in each nostril (6 mg)
  AUC(0-t): 0.222 ng·h/mL
6 mg, AUC0-5 min, Treatment C (T3) 6 mg in one nostril
  AUC(0-t): 0.146 ng·h/mL
6 mg, AUC0-10 min, Treatment B (T2) 3 mg in each nostril (6 mg)
  AUC(0-t): 1.21 ng·h/mL
6 mg, AUC0-10 min, Treatment C (T3) 6 mg in one nostril
  AUC(0-t): 0.988 ng·h/mL
6 mg, AUC0-15 min, Treatment B (T2) 3 mg in each nostril (6 mg)
  AUC(0-t): 2.67 ng·h/mL
6 mg, AUC0-15 min, Treatment C (T3) 6 mg in one nostril
  AUC(0-t): 2.24 ng·h/mL
6 mg, AUC0-20 min, Treatment B (T2) 3 mg in each nostril (6 mg)
  AUC(0-t): 4.14 ng·h/mL
6 mg, AUC0-20 min, Treatment C (T3) 6 mg in one nostril
  AUC(0-t): 3.53 ng·h/mL
6 mg, AUC0-30 min, Treatment B (T2) 3 mg in each nostril (6 mg)
  AUC(0-t): 6.46 ng·h/mL
6 mg, AUC0-30 min, Treatment C (T3) 6 mg in one nostril
  AUC(0-t): 5.58 ng·h/mL
[5]
  AUC(0-inf): 89.5 ng·h/mL
  Cmax: 22.2 ng/mL
  Vd/F: 1120 L
[6]
  AUC(0-inf): 85.7 ng·h/mL
  Vd/F: 1190 L
6 mg, AUClast, Treatment B (T2) 3 mg in each nostril (6 mg)
  AUC(0-t): 86.2 ng·h/mL
6 mg, AUClast, Treatment C (T3) 6 mg in one nostril
  AUC(0-t): 82.1 ng·h/mL
